{"source": "patent US5256788A", "about": "“Moranoline derivatives and their production and the use of moranoline and its derivatives as a stabilizing agent for enzymes” (Nippon Shinyaku Co. Ltd., priority 1989, dated 1993)", "target": "T1, immobilized CGTase (Geobacillus stearothermophilus, UniProt P31797)", "T1 construct": "purchased Hayashibara Biochemical Research Institute", "T1 sequence (P31797 32-711)": "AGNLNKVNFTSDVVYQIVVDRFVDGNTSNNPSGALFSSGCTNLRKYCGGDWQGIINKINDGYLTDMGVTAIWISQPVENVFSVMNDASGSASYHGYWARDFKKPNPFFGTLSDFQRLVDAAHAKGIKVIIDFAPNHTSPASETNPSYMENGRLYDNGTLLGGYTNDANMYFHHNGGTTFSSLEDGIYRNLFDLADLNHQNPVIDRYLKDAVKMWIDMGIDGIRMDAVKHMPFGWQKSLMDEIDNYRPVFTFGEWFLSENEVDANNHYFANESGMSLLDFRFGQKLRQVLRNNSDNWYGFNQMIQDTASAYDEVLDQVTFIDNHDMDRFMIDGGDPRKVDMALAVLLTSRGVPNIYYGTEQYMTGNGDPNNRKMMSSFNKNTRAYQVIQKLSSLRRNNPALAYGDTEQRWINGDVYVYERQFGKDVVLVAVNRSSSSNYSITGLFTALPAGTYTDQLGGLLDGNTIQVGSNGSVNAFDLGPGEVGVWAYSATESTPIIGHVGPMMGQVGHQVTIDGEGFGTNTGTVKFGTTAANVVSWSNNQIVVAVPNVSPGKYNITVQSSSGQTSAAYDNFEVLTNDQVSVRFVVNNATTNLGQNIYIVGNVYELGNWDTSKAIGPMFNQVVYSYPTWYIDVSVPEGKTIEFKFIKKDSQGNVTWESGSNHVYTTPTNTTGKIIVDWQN", "assay": "Stabilization of immobilized CGTase in sugar transfer reaction solution of moranoline (enzyme activity retention rate)", "assay_type": "biochemical, Bacillus stearothermophilus", "details": "2.5 w/v% moranoline and 25 w/v% Amicol No. 6L", "experimental": "The immobilized CGTase, 10 ml, obtained in Reference Example 1 was added to 100 ml of aqueous solution with the pH being not adjusted containing 2.5 w/v% of moranoline and 25 w/v% of Amicol No. 6L [manufactured by Nichiden Chemical Co., Ltd.] followed by rotary shaking at 55° C. […] (after a definite period of time as illustrated below) the beads (immobilized CGTase) were filtered through a glass filter. After thoroughly washing with water, the enzyme activity of the immobilized CGTase was determined as follows.\n(§1) The beads (washed immobilized CGTase after a definite period of time at 55° C.), 1 ml, was added to 10 ml of aqueous solution with the pH being not adjusted containing 2.5 w/v% of moranoline and 25 w/v% of Amicol No. 6L followed by reacting at 55° C. for 24 hours. The reaction solution 3 ml, was passed through 7 ml of strongly acidic ion exchange resin DOWEX 50W×2 (H ). After thoroughly washing with water, elution was performed with 0.5N ammonia water. The eluate was concentrated to dryness under reduced pressure and the residue was dissolved in 3 ml of water. 10 μl of the solution was applied to and analyzed by high performance liquid chromatography to determine a concentration of the unreacted moranoline. The analytical conditions for high performance liquid chromatography were as follows: column (Nucleosil 5NH2, 5 μm, 4 mm i.d.×25 cm), developing solvent acetonitrile-water=70:30), detector (Hitachi 655A-30, RI detector), data processor (Hitachi D-2000). [formula]\nWhere the reaction progress rate was made 100 when rotary shaking started at 55° C., a relative reaction progress rate after a definite period of time passed was calculated according to the above equation. The thus obtained value was made an enzyme activity retention rate. The fact that the enzyme activity of the immobilized CGTase was stabilized by the moranoline in accordance with the present invention is clearly shown.\nThe immobilized CGTase, 10 ml, obtained in Reference Example A was added to 100 ml of aqueous solution with the pH being not adjusted containing 2.5 w/v% of moranoline and 25 w/v% of Amicol No. 6L [manufactured by Nichiden Chemical Co., Ltd.] followed by rotary shaking at 55° C. After a definite period of time passed, the beads (immobilized CGTase) were filtered through a glass filter. After thoroughly washing with water, the enzyme activity of the immobilized CGTase was determined as follows. (Method for determination of enzyme activity of immobilized CGTase)\nas §1, with “24 hours” for “24 hours.”, “reaction liquid,” for “reaction solution”, “DOWEX 50W X 2 (H+).” for “DOWEX 50W×2 (H ).”, “mm i.d. X 25” for “mm i.d.×25”\nWhere the reaction progress rate was made 100 when rotary shaking started at 55° C., a relative reaction progress rate after a definite period of time passed was calculated according to the above equation. The thus obtained value was made an enzyme activity retention rate."}
{"smiles": "OC[C@H]1NC[C@H](O)[C@@H](O)[C@@H]1O", "note": "[moranoline]", "values": [{"measurement": "activity at 25000 µg/mL", "setting": "0 h, day 0, 55° C., start made 100", "value": 100, "unit": "%"}, {"measurement": "activity at 25000 µg/mL", "setting": "336 h, day 14, 55° C.", "value": 100, "unit": "%"}, {"measurement": "activity at 25000 µg/mL", "setting": "504 h, day 21, 55° C.", "value": 103, "unit": "%"}, {"measurement": "activity at 25000 µg/mL", "setting": "672 h, day 28, 55° C.", "value": 102, "unit": "%"}, {"measurement": "activity at 25000 µg/mL", "setting": "888 h, day 37, 55° C.", "value": 101, "unit": "%"}, {"measurement": "activity at 25000 µg/mL", "setting": "1272 h, day 53, 55° C.", "value": 102, "unit": "%"}, {"measurement": "activity at 25000 µg/mL", "setting": "1560 h, day 65, 55° C.", "value": 104, "unit": "%"}, {"measurement": "activity at 25000 µg/mL", "setting": "1872 h, day 78, 55° C.", "value": 101, "unit": "%"}, {"measurement": "activity at 25000 µg/mL", "setting": "2232 h, day 93, 55° C.", "value": 99.7, "unit": "%"}, {"measurement": "activity at 25000 µg/mL", "setting": "2400 h, day 100, 55° C.", "value": 100, "unit": "%"}, {"measurement": "activity at 25000 µg/mL", "setting": "2856 h, day 119, 55° C.", "value": 97, "unit": "%"}, {"measurement": "activity at 25000 µg/mL", "setting": "3360 h, day 140, 55° C.", "value": 100, "unit": "%"}, {"measurement": "activity at 25000 µg/mL", "setting": "3912 h, day 163, 55° C.", "value": 99.3, "unit": "%"}, {"measurement": "activity at 25000 µg/mL", "setting": "4272 h, day 178, 55° C.", "value": 98.4, "unit": "%"}, {"measurement": "activity at 25000 µg/mL", "setting": "4752 h, day 198, 55° C.", "value": 92.5, "unit": "%"}, {"measurement": "activity at 25000 µg/mL", "setting": "5040 h, day 210, 55° C.", "value": 95.6, "unit": "%"}, {"measurement": "activity at 25000 µg/mL", "setting": "5544 h, day 231, 55° C.", "value": 92.5, "unit": "%"}, {"measurement": "activity at 25000 µg/mL", "setting": "5904 h, day 246, 55° C.", "value": 93, "unit": "%"}, {"measurement": "activity at 25000 µg/mL", "setting": "6288 h, day 262, 55° C.", "value": 92.3, "unit": "%"}, {"measurement": "activity at 25000 µg/mL", "setting": "6576 h, day 274, 55° C.", "value": 92.5, "unit": "%"}, {"measurement": "activity at 25000 µg/mL", "setting": "6912 h, day 288, 55° C.", "value": 91.7, "unit": "%"}, {"measurement": "activity at 25000 µg/mL", "setting": "7248 h, day 302, 55° C.", "value": 92, "unit": "%"}, {"measurement": "activity at 25000 µg/mL", "setting": "7728 h, day 322, 55° C.", "value": 92.7, "unit": "%"}, {"measurement": "activity at 25000 µg/mL", "setting": "8136 h, day 339, 55° C.", "value": 91.5, "unit": "%"}, {"measurement": "activity at 25000 µg/mL", "setting": "8472 h, day 353, 55° C.", "value": 93.9, "unit": "%"}, {"measurement": "activity at 25000 µg/mL", "setting": "8784 h, day 366, 55° C.", "value": 90, "unit": "%"}, {"measurement": "activity at 25000 µg/mL", "setting": "9912 h, day 413, 55° C.", "value": 90, "unit": "%"}]}
